In patent publication US8492515B2 (priority 2008, dated 2013):
Values after ≈ are worked out from the molar mass of the structure shown. Square brackets hold non-standard residues; d marks the D form. Peptide text beside a SMILES is read from it. Ac6c = NC1(C(=O)O)CCCCC1

System: E. coli HK101
Settings: quarter strength Mueller-Hinton broth, overnight, 37° C.
Source text: To investigate the activity of the A3-APO metabolites, Chex1-Arg20 single chain unit and an Arg7-Arg20 common cleavage fragment were synthesized and […], a true measure of potential clinical viability (Otvos et al., 2005. J. Med. Chem. 48: 5349-5359). The peptides of the invention were made on a CEM Liberty automated synthesizer with standard Fmoc-chemistry. The peptides were detached from the resin with the carboxyl terminus of the C-terminal Arg residue being in the form of an amino amide, —C(O)—NH2 (“Chex1-Arg20-NH2” and “Arg7-Arg20-NH2”), while still in the microwave chamber, and were purified by RP-HPLC. […] The biological studies carried out on chemically synthesized peptides in this example and succeeding examples were carried out on the C-terminal modified versions of the peptides wherein the C-terminal carboxylic acid function was in the form of an amide, —C(O)—NH2. […] The cell concentrations were estimated by measuring the ultraviolet absorbance at 600 nm and applying the formula cfu/mL=A600(3.8×10^8), where cfu is the number of colony-forming units. […] Cultures were then incubated at 37° C., 5% CO2 for 16-20 h without shaking, and growth inhibition was measured by recording the absorbance at 600 nm using a microplate reader. […]
Following the protocol of Example 2, minimal inhibitory concentrations of the Chex1-Arg20 peptide against selected bacteria was determined. […]

For `CC(C)C[C@H](NC(=O)[C@H](Cc1ccc(O)cc1)NC(=O)[C@@H]1CCCN1C(=O)[C@H](CCCNC(=N)N)NC(=O)[C@@H]1CCCN1C(=O)[C@H](CCCCN)NC(=O)[C@H](CC(=O)O)NC(=O)[C@@H]1CCCN1C(=O)[C@H](CCCNC(=N)N)NC(=O)C1(N)CCCCC1)C(=O)N1CCC[C@H]1C(=O)N[C@@H](CCCNC(=N)N)C(=O)N1CCC[C@H]1C(=O)N[C@@H](CCCNC(=N)N)C(=O)N1CCC[C@H]1C(=O)N1CCC[C@H]1C(=O)N[C@@H](CCCNC(=N)N)C(=O)N1CCC[C@H]1C(=O)N[C@H](C(=O)N[C@@H](CCCNC(=N)N)C(=O)O)C(C)C` [Chex1-Arg20, Chex-Arg-Pro-Asp-Lys-Pro-Arg-Pro-Tyr-Leu-Pro-Arg-Pro-Arg--Pro-Pro-Arg-Pro-Val-Arg] (H-[Ac6c]RPDKPRPYLPRPRPPRPVR-OH; N-terminus and C-terminus assumed), the “MIC, E. coli HK101” value was 0.5 µg/mL (≈ 0.202 µM).
